Laboratory results reported in PMC10817512, “OSMAC-Based Discovery and Biosynthetic Gene Clusters Analysis of Secondary Metabolites from Marine-Derived Streptomyces globisporus SCSIO LCY30” (Marine Drugs, 2023).
≈ marks a conversion by molar mass, not a printed value. Like-named read-outs stand apart in the source and are kept apart here. One block for each compound: values may come before it.

How the values were obtained:
[1] = tested on: cervical cancer cell line Hela; test: Cell growth inhibitory (cytotoxic) activity assay; type: cell-based, human
Excerpt: (§1) The cell growth inhibitory activities of compounds 1–3 against fourteen different human cell lines (human liver cell line LX-2; hepatocellular cancer line HEPG2; human intestinal epithelial cell line NCM460; colorectal cancer cell lines HCT116 and SW480; normal human breast cell line MCF-10A; breast cancer cell line MCF7; triple-negative breast cancer cell lines MDA-MB-231, MDA-MB-468, and Bt-549; human umbilical vein endothelial cell line; lung cancer cell line A549; cervical cancer cell line Hela; and cholangiocarcinoma cell line RBE) were tested according to the previously published methods. SPSS software version 22.0 was used to test the IC50 values. Cisplatin and adriamycin were used as positive control agents, and all the experiments were carried out in triplicate.

[2] = tested on: cholangiocarcinoma cell line RBE; test: Cell growth inhibitory (cytotoxic) activity assay; type: cell-based, human
Excerpt: as §1

[3] = tested on: colorectal cancer cell line HCT116; test: Cell growth inhibitory (cytotoxic) activity assay; type: cell-based, human
Excerpt: as §1

[4] = tested on: colorectal cancer cell line SW480; test: Cell growth inhibitory (cytotoxic) activity assay; type: cell-based, human; conditions: SW480 (colorectal cancer)
Excerpt: as §1

[5] = tested on: hepatocellular cancer line HEPG2; test: Cell growth inhibitory (cytotoxic) activity assay; type: cell-based, human
Excerpt: as §1

[6] = tested on: lung cancer cell line A549; test: Cell growth inhibitory (cytotoxic) activity assay; type: cell-based, human; conditions: Homo sapiens
Excerpt: as §1

[7] = tested on: triple-negative breast cancer cell line Bt-549; test: Cell growth inhibitory (cytotoxic) activity assay; type: cell-based, human; conditions: Bt-549 (TNBC)
Excerpt: as §1

[8] = tested on: triple-negative breast cancer cell line MDA-MB-231; test: Cell growth inhibitory (cytotoxic) activity assay; type: cell-based, human; conditions: MDA-MB-231 (TNBC)
Excerpt: as §1

[9] = tested on: triple-negative breast cancer cell line MDA-MB-468; test: Cell growth inhibitory (cytotoxic) activity assay; type: cell-based, human; conditions: MDA-MB-468 (TNBC)
Excerpt: as §1

[10] = tested on: human intestinal epithelial cell line NCM460; test: Cell growth inhibitory (cytotoxic) activity assay; type: cell-based; conditions: NCM460 (normal intestinal epithelial cell line)
Excerpt: as §1

[11] = tested on: human liver cell line LX-2; test: Cell growth inhibitory (cytotoxic) activity assay; type: cell-based; conditions: LX-2 (human liver cell line)
Excerpt: as §1

[12] = tested on: human umbilical vein endothelial cell line HUVEC; test: Cell growth inhibitory (cytotoxic) activity assay; type: cell-based
Excerpt: as §1

[13] = tested on: normal human breast cell line MCF-10A; test: Cell growth inhibitory (cytotoxic) activity assay; type: cell-based; conditions: MCF-10A (normal human breast cell line)
Excerpt: as §1

[14] = tested on: Staphylococcus simulans AKA1; test: Antibacterial MIC, CLSI microdilution; type: cell-based; conditions: Staphylococcus simulans AKA1; 37 °C, 16–18 h; read-out: MIC
Bacillus subtilis BS01 = test: Antibacterial MIC, CLSI microdilution; type: cell-based; conditions: Bacillus subtilis BS01; 37 °C, 16–18 h; read-out: MIC
Protocol: (§2) An antibacterial activity test of compounds 1–3 was conducted according to a standard protocol provided by the Clinical and Laboratory Standards Institute (CLSI). Sixteen bacterial strains were used, including Staphylococcus aureus ATCC 29213, Staphylococcus aureus 16339, Staphylococcus aureus 1862, Staphylococcus aureus 3090, Staphylococcus aureus 991, Staphylococcus aureus 669, Staphylococcus aureus 745324, Staphylococcus aureus 16162, Staphylococcus aureus (cfr) GDE4P037P, Enterococcus faecalis ATCC 29212, Enterococcus faecalis 36950, Micrococcus luteus ML01, MRSA, Bacillus subtilis BS01, Enterococcus gallinarum 5F52C, and Enterococcus faecium 36711. Compounds 1–3 were dissolved in DMSO at a concentration of 3.2 mg/mL, and vancomycin and ampicilin were used as antibacterial control agents. […] All the assays were carried out in triplicate.

[15] = tested on: Enterococcus faecalis 36950; test: Antibacterial MIC, CLSI microdilution; type: cell-based; conditions: Enterococcus faecalis 36950; 37 °C, 16–18 h; read-out: MIC
Protocol: as §2

[16] = tested on: Enterococcus faecalis ATCC 29212; test: Antibacterial MIC, CLSI microdilution; type: cell-based; conditions: ATCC29212; Enterococcus faecalis ATCC 29212; 37 °C, 16–18 h; read-out: MIC
Protocol: as §2

[17] = tested on: Enterococcus faecium 36711; test: Antibacterial MIC, CLSI microdilution; type: cell-based; conditions: Enterococcus faecium 36711; 37 °C, 16–18 h; read-out: MIC
Protocol: as §2

[18] = tested on: Enterococcus gallinarum 5F52C; test: Antibacterial MIC, CLSI microdilution; type: cell-based; conditions: Enterococcus gallinarum 5F52C; 37 °C, 16–18 h; read-out: MIC
Protocol: as §2

Micrococcus luteus ML01 = test: Antibacterial MIC, CLSI microdilution; type: cell-based; conditions: Micrococcus luteus, ML01, Micrococcus luteus ML01; 37 °C, 16–18 h; read-out: MIC
Protocol: as §2

[19] = tested on: Staphylococcus aureus (cfr) GDE4P037P; test: Antibacterial MIC, CLSI microdilution; type: cell-based; conditions: Staphylococcus aureus (cfr) GDE4P037P; 37 °C, 16–18 h; read-out: MIC
Protocol: as §2

[20] = tested on: Staphylococcus aureus 16162; test: Antibacterial MIC, CLSI microdilution; type: cell-based; conditions: Staphylococcus aureus 16162; 37 °C, 16–18 h; read-out: MIC
Protocol: as §2

[21] = tested on: Staphylococcus aureus 16339; test: Antibacterial MIC, CLSI microdilution; type: cell-based; conditions: Staphylococcus aureus 16339; 37 °C, 16–18 h; read-out: MIC
Protocol: as §2

[22] = tested on: Staphylococcus aureus 1862; test: Antibacterial MIC, CLSI microdilution; type: cell-based; conditions: Staphylococcus aureus 1862; 37 °C, 16–18 h; read-out: MIC
Protocol: as §2

[23] = tested on: Staphylococcus aureus 3090; test: Antibacterial MIC, CLSI microdilution; type: cell-based; conditions: Staphylococcus aureus 3090; 37 °C, 16–18 h; read-out: MIC
Protocol: as §2

[24] = tested on: Staphylococcus aureus 669; test: Antibacterial MIC, CLSI microdilution; type: cell-based; conditions: Staphylococcus aureus 669; 37 °C, 16–18 h; read-out: MIC
Protocol: as §2

[25] = tested on: Staphylococcus aureus 745324; test: Antibacterial MIC, CLSI microdilution; type: cell-based; conditions: Staphylococcus aureus 745324; 37 °C, 16–18 h; read-out: MIC
Protocol: as §2

[26] = tested on: Staphylococcus aureus 991; test: Antibacterial MIC, CLSI microdilution; type: cell-based; conditions: Staphylococcus aureus 991; 37 °C, 16–18 h; read-out: MIC
Protocol: as §2

[27] = tested on: Staphylococcus aureus ATCC 29213; test: Antibacterial MIC, CLSI microdilution; type: cell-based; conditions: ATCC29213; Staphylococcus aureus ATCC 29213; 37 °C, 16–18 h; read-out: MIC
Protocol: as §2

MRSA = test: Antibacterial MIC, CLSI microdilution; type: cell-based, Staphylococcus aureus; conditions: Staphylococcus aureus, 37 °C, 16–18 h, read-out: MIC
Protocol: as §2

[28] = tested on: breast cancer cell line MCF7; test: Cell growth inhibitory (cytotoxic) activity assay; type: cell-based, human
Excerpt: SPSS software version 22.0 was used to test the IC50 values.

SMILES: COc1cccc2c1C(=O)c1c(O)c3c(c(O)c1C2=O)C[C@@](O)(C(=O)CO)C[C@@H]3O[C@H]1C[C@H](N)[C@H](O)[C@H](C)O1 [Adriamycin, reference compound]
- IC50 ([1]; Homo sapiens): 7.02 µM
- IC50 ([2]; Homo sapiens): 4.26 µM
- IC50 ([3]; Homo sapiens, HCT-116): 1.54 µM
- IC50 ([4]; Homo sapiens): 17.5 µM
- IC50 ([5]; Homo sapiens): 15.5 µM
- IC50 [6]: 1.51 µM
- IC50 ([7]; Homo sapiens): 3.75 µM
- IC50 ([8]; Homo sapiens): 4.04 µM
- IC50 ([9]; Homo sapiens): 3.16 µM
- IC50 ([10]; Homo sapiens): 3.89 µM
- IC50 [11]: 1.36 µM
- IC50 [12]: 12 µM
- IC50 [13]: 3.72 µM

- MIC [14]: > 64 µg/mL
- MIC (Bacillus subtilis BS01): 0.13 µg/mL (≈ 0.372 µM)
- MIC [15]: > 64 µg/mL
- MIC [16]: 1 µg/mL (≈ 2.86 µM)
- MIC [17]: > 64 µg/mL
- MIC [18]: 8 µg/mL (≈ 22.9 µM)
- MIC (Micrococcus luteus ML01): 0.13 µg/mL (≈ 0.372 µM)
- MIC [19]: 16 µg/mL (≈ 45.8 µM)
- MIC [20]: 16 µg/mL (≈ 45.8 µM)
- MIC [21]: 64 µg/mL (≈ 183 µM)
- MIC [22]: 4 µg/mL (≈ 11.4 µM)
- MIC [23]: 16 µg/mL (≈ 45.8 µM)
- MIC [24]: 8 µg/mL (≈ 22.9 µM)
- MIC [25]: 4 µg/mL (≈ 11.4 µM)
- MIC [26]: 4 µg/mL (≈ 11.4 µM)
- MIC [27]: 1 µg/mL (≈ 2.86 µM)
- MIC (MRSA): 32 µg/mL (≈ 91.6 µM)
SMILES: CC1(C)S[C@@H]2[C@H](NC(=O)[C@H](N)c3ccccc3)C(=O)N2[C@H]1C(=O)O [Ampicillin, reference compound]

SMILES: N.N.[Cl][Pt][Cl] [Cisplatin, reference compound]
- IC50 [1]: 7.62 µM
- IC50 [2]: 13.5 µM
- IC50 [3]: 4.83 µM
- IC50 [4]: 1.82 µM
- IC50 [5]: 11 µM
- IC50 [7]: 7.54 µM
- IC50 [8]: 15.7 µM
- IC50 [9]: 8.35 µM
- IC50 [28]: 4.56 µM
- IC50 [10]: 3.17 µM
- IC50 [11]: 12.1 µM
- IC50 [12]: 7.7 µM
- IC50 [13]: 6.43 µM
